Data as given in US20090004185A1, “AMINO-SUBSTITUTED QUINAZOLINE DERIVATIVES AS INHIBITORS OF BETA-CATENIN/TCF-4 PATHWAY AND CANCER TREATMENT AGENTS” (WYETH, priority 2007, published 2009).
Where a name gives a salt, the structure may show the parent alone.

What was measured:
[1] = test system: β-catenin/Tcf-4; test: cells; format: cell-based; conditions: Homo sapiens, 24 hours of incubation with compound, ratio Firefly/Renilla luciferase
In short: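 SW480-derived lines with integrated reporters (Tcf-4-driven firefly luciferase; SV40 firefly as specificity control; SV40 Renilla for cell number/toxicity), treated 24 hours with titrated compounds, final 0.316% DMSO. Dual-luciferase read-out; firefly/Renilla ratio as % of control, duplicate plates, IC50 (nM) from curve fit.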

[2] = test system: SV40-Luc; test: SV40-Luc control luciferase reporter assay, SV 5A8 cell line (SV40-Luc and SV40-R-Luc), control for non-specific inhibitors; format: cell-based, human; conditions: Homo sapiens, SV5A8, 24 h, SV 5A8 cells derived from SW480; 24 hours of incubation with compound; ratio Firefly/Renilla luciferase
In short: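 Dual-luciferase readout in SW480 lines with chromosomally integrated reporters, namely Tcf-4-driven firefly in Tcf 33.13 and Tcf 22C11, and SV40-driven firefly in SV 5A8, all with SV40-Renilla. Compound incubation is 24 h; IC50 comes from the normalised F/R ratio.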

[3] = SW480, 24 h, Tcf 33.13 cells derived from SW480
[4] = Tcf22C11, 24 h, Tcf 22C11 cells derived from SW480

Structure (SMILES) | melting point | IC50 [1, 3] | IC50 [1, 4] | IC50 [2]
CN(C)c1nc(NCc2ccc(NC(=O)c3ccc(F)cc3)cc2)c2ccc(CN)cc2n1 (as salt: HCl) [Example 90, N-[4-({[7-(aminomethyl)-2-(dimethylamino)quinazolin-4-yl]amino}methyl)phenyl]-4-fluorobenzamide] | 245 °C | – | – | –
CN(C)Cc1ccc2c(NCc3ccc(NC(=O)c4ccc(F)cc4)cc3)nc(N(C)C)nc2c1 (as salt: HCl) [Example 91, N-{4-[({2-(dimethylamino)-7-[(dimethylamino)methyl]quinazolin-4-yl}amino)methyl]phenyl}-4-fluorobenzamide] | 94 °C | – | – | –
CN(C)c1nc(NCc2ccc(NC(=O)c3ccc(F)cc3)cc2)c2ccc(CO)cc2n1 (as salt: HCl) [Example 93, N-[4-({[2-(dimethylamino)-7-(hydroxymethyl)quinazolin-4-yl]amino}methyl)phenyl]-4-fluorobenzamide] | 158 °C | – | – | –
CC(O)c1ccc2c(NCc3ccc(NC(=O)c4ccc(F)cc4)cc3)nc(N(C)C)nc2c1 (stereo not drawn) (as salt: HCl) [Example 95, N-[4-({[2-(dimethylamino)-7-(1-hydroxyethyl)quinazolin-4-yl]amino}methyl)phenyl]-4-fluorobenzamide] | 232 °C | – | – | –
C/C=C/c1ccc2c(NCc3ccc(NC(=O)c4ccc(F)cc4)cc3)nc(N(C)C)nc2c1 (as salt: HCl) [Example 96, N-{4-[({2-(dimethylamino)-7-[(1E)-prop-1-en-1-yl]quinazolin-4-yl}amino)methyl]phenyl}-4-fluorobenzamide] | 268 °C | – | – | –
C/C=C\c1ccc2c(NCc3ccc(NC(=O)c4ccc(F)cc4)cc3)nc(N(C)C)nc2c1 (as salt: HCl) [Example 97, N-{4-[({2-(dimethylamino)-7-[(1Z)-prop-1-en-1-yl]quinazolin-4-yl}amino)methyl]phenyl}-4-fluorobenzamide] | 246 °C | – | – | –
CN(C)c1nc(NCc2ccc(NC(=O)c3ccc(F)cc3)cc2)c2ccc(-c3ccccc3C=O)cc2n1 (as salt: HCl) [Example 98, N-[4-({[2-(dimethylamino)-7-(2-formylphenyl)quinazolin-4-yl]amino}methyl)phenyl]-4-fluorobenzamide] | 128 °C | – | – | –
C#Cc1ccc2c(NCc3ccc(NC(=O)c4ccc(F)cc4)cc3)nc(N(C)C)nc2c1 (as salt: HCl) [Example 108, N-[4-({[2-(dimethylamino)-7-ethynylquinazolin-4-yl]amino}methyl)phenyl]-4-fluorobenzamide] | 250 °C | – | – | –
CN(C)c1nc(NCc2ccc(NC(=O)c3ccc(Cl)nc3)cc2)c2ccc(I)cc2n1 (as salt: HCl) [Example 110, 6-chloro-N-[4-({[2-(dimethylamino)-7-iodoquinazolin-4-yl]amino}methyl)phenyl]nicotinamide] | 170 °C | – | – | –
C/C=C/c1ccc2c(NCc3ccc(NC(=O)c4ccc(Cl)nc4)cc3)nc(N(C)C)nc2c1 (as salt: HCl) [Example 112, 6-chloro-N-{4-[({2-(dimethylamino)-7-[(1E)-prop-1-en-1-yl]quinazolin-4-yl}amino)methyl]phenyl}nicotinamide] | 185 °C | – | – | –
O=C(O)CNc1nc(NCc2ccc(NC(=O)c3ccc(F)cc3)cc2)c2ccccc2n1 (as salt: HCl) [Example 127, N-[4-({4-[(4-fluorobenzoyl)amino]benzyl}amino)quinazolin-2-yl]glycine] | 235 °C | – | – | –
CNc1nc(NCc2ccc(NC(=O)c3ccc(Cl)cc3)cc2)c2cc(Br)cc(C)c2n1 [Example 66, N-[4-({[6-bromo-8-methyl-2-(methylamino)quinazolin-4-yl]amino}methyl)phenyl]-4-chlorobenzamide] | 139 °C | 649 nM | 1010 nM | > 9790 nM
CC(=O)c1ccc2c(NCc3ccc(NC(=O)c4ccc(F)cc4)cc3)nc(N(C)C)nc2c1 [Example 94, N-[4-({[7-acetyl-2-(dimethylamino)quinazolin-4-yl]amino}methyl)phenyl]-4-fluorobenzamide] | 195 °C | – | – | > 20200 nM
O=C(Nc1ccc(CNc2nc(Cl)nc3cc(I)ccc23)cc1)c1ccc(Cl)nc1 [Example 109, 6-chloro-N-(4-{[(2-chloro-7-iodoquinazolin-4-yl)amino]methyl}phenyl)nicotinamide] | 315 °C | – | – | –
O=C(Nc1ccc(CNc2nc(N3CCC3)nc3ccccc23)cc1)c1ccc(F)cc1 [Example 114, N-(4-{[(2-azetidin-1-ylquinazolin-4-yl)amino]methyl}phenyl)-4-fluorobenzamide] | 249 °C | 587 nM | 870 nM | > 5850 nM
O=C(Nc1ccc(CNc2nc(NC3CC3)nc3ccccc23)cc1)c1ccc(F)cc1 [Example 121, N-[4-({[2-(cyclopropylamino)quinazolin-4-yl]amino}methyl)phenyl]-4-fluorobenzamide] | 189 °C | 1140 nM | 1720 nM | > 2920 nM
CC(C)(C)OC(=O)CNc1nc(NCc2ccc(NC(=O)c3ccc(F)cc3)cc2)c2ccccc2n1 [Example 126, tert-butyl N-[4-({4-[(4-fluorobenzoyl)amino]benzyl}amino)quinazolin-2-yl]glycinate] | 96 °C | 1070 nM | 1720 nM | > 2490 nM

The remaining lines, values ahead:

melting point | IC50 [1, 3] | IC50 [1, 4] | IC50 [2] | Structure (SMILES)
100 °C | – | – | – | Cc1ccc2c(NCc3ccc(NC(=O)C4CCN(Cc5ccccc5)CC4)cc3)nc(N(C)C)nc2c1 (as salt: HCl) [Example 129, 1-benzyl-N-[4-({[2-(dimethylamino)-7-methylquinazolin-4-yl]amino}methyl)phenyl]piperidine-4-carboxamide]
325 to 329 °C | – | – | – | Cc1ccc2c(NCc3ccc(NC(=O)c4ccc(Cl)nc4)cc3)nc(N(C)C)nc2c1 (as salt: hydrochloride) [Example 242, 6-chloro-N-[4-({[2-(dimethylamino)-7-methylquinazolin-4-yl]amino}methyl)phenyl]nicotinamide]
128 °C | 699 nM | 798 nM | > 2350 nM | CNc1nc(NCc2ccc(NC(=O)C3CCN(Cc4ccccc4)CC3)cc2)c2ccc(C)cc2n1 [Example 130, 1-benzyl-N-[4-({[7-methyl-2-(methylamino)quinazolin-4-yl]amino}methyl)phenyl]piperidine-4-carboxamide]
66 °C | 966 nM | 1040 nM | > 7870 nM | Cc1ccc2c(NCc3ccc(NC(=O)C4CCN(Cc5ccccc5)CC4)cc3)nc(N3CCCCCC3)nc2c1 [Example 131, N-(4-{[(2-azepan-1-yl-7-methylquinazolin-4-yl)amino]methyl}phenyl)-1-benzylpiperidine-4-carboxamide]
55 °C | 1140 nM | 1390 nM | > 2150 nM | CCNc1nc(NCc2ccc(NC(=O)C3CCN(Cc4ccccc4)CC3)cc2)c2ccc(C)cc2n1 [Example 132, 1-benzyl-N-[4-({[2-(ethylamino)-7-methylquinazolin-4-yl]amino}methyl)phenyl]piperidine-4-carboxamide]
96 °C | 793 nM | 669 nM | > 9350 nM | Cc1ccc2c(NCc3ccc(NC(=O)C4CCN(Cc5ccccc5)CC4)cc3)nc(N3CCCC3)nc2c1 [Example 133, 1-benzyl-N-(4-{[(7-methyl-2-pyrrolidin-1-ylquinazolin-4-yl)amino]methyl}phenyl)piperidine-4-carboxamide]
180 °C | 169 nM | 268 nM | > 2400 nM | C=Cc1ccc2c(NCc3ccc(NC(=O)C4CCN(Cc5ccccc5)CC4)cc3)nc(N(C)C)nc2c1 [Example 150, 1-benzyl-N-[4-({[2-(dimethylamino)-7-vinylquinazolin-4-yl]amino}methyl)phenyl]piperidine-4-carboxamide]
233 to 236 °C | – | – | > 5780 nM | CNc1nc(NCc2ccc(NC(=O)c3ccc(Cl)nc3)cc2)c2c(C)cccc2n1 [Example 194, 6-chloro-N-[4-({[5-methyl-2-(methylamino)quinazolin-4-yl]amino}methyl)phenyl]nicotinamide]
264 to 266 °C | – | – | > 1160 nM | CNc1nc(NCc2ccc(NC(=O)c3ccc(Cl)cc3)cc2)c2ccc(C)cc2n1 [Example 195, 4-chloro-N-[4-({[7-methyl-2-(methylamino)quinazolin-4-yl]amino}methyl)phenyl]benzamide]
170 to 174 °C | – | – | > 2820 nM | CCCNc1nc(NCc2ccc(NC(=O)c3ccc(F)cc3)cc2)c2ccc(C)cc2n1 [Example 231, 4-fluoro-N-[4-({[7-methyl-2-(propylamino)quinazolin-4-yl]amino}methyl)phenyl]benzamide]
200 to 202 °C | – | – | > 6780 nM | Cc1ccc2c(NCc3ccc(NC(=O)c4ccc(F)cc4)cc3)nc(N3CCN[C@@H](C)C3)nc2c1 [Example 234, 4-fluoro-N-{4-[({7-methyl-2-[(3S)-3-methylpiperazin-1-yl]quinazolin-4-yl}amino)methyl]phenyl}benzamide]
